The results in this text go back to patent publication US20260347347A1, “2-AZA-AND 2-OXABICYCLO[2.1.1]HEXANE DERIVATIVES AS FACTOR XIIA ENZYME INHIBITORS” (KALVISTA PHARMACEUTICALS LIMITED, priority 2022, published 2026).

pIC50: −log10 of the molar value.

One may read the pIC50 as the IC50 on a negative log10 scale, so that one unit is a factor of ten.

This assay concerns the target T1, Human Factor XIIa (Homo sapiens, UniProt P00748).
T1 construct: purchased Enzyme Research Laboratories
T1 sequence (P00748 373-615 limits assumed): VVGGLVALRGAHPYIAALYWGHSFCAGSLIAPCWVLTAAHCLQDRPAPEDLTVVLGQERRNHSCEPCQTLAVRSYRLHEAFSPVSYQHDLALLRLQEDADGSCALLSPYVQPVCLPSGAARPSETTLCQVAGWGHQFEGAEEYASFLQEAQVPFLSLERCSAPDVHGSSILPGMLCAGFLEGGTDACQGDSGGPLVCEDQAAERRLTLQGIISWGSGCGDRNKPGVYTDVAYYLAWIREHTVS
T1 sequence (P00748 20-372 partner limits assumed): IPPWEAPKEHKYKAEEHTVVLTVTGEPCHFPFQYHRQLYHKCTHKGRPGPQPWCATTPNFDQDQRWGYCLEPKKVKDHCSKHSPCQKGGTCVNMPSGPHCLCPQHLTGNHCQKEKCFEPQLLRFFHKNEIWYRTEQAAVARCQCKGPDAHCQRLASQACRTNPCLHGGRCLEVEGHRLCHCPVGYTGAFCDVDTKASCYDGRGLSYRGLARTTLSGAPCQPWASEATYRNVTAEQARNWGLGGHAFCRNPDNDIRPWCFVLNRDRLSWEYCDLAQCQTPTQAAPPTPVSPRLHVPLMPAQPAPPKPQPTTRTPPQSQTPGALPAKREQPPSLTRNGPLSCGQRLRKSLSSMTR
Nature of the assay: Determination of FXIIa inhibition (in vitro IC50 assay, fluorogenic substrate H-DPro-Phe-Arg-AFC). The assay is classed as biochemical. The settings on record: human Factor XIIa; fluorogenic substrate H-DPro-Phe-Arg-AFC at Km concentration; 5 min, 25 °C; class symbols; read-out: Human FXIIa IC50. In a few lines:
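Human FXIIa incubated at 25 °C with compound and H-DPro-Phe-Arg-AFC at its Km concentration. Linear fluorescence increase monitored over 5 min, expressed as % of uninhibited activity; IC50 is concentration giving 50% inhibition.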
As to `Cn1ccc(OCC23CN(C(=O)N[C@@H]4C[C@H]4c4ccccc4)C(CNc4cccc5c(N)nccc45)(C2)C3)cc1=O` (racemic) [Example 60, rac-1-(((1-aminoisoquinolin-5-yl)amino)methyl)-4-(((1-methyl-2-oxo-1,2-dihydropyridin-4-yl)oxy)methyl)-N-((1R,2S)-2-phenylcyclopropyl)-2-azabicyclo[2.1.1]hexane-2-carboxamide], the pIC50 was 8.00 to 9.00.

`Cn1ccc(OCC23CN(C(=O)N[C@@H](c4ccccc4)C(F)(F)F)C(CNc4cccc5c(N)nccc45)(C2)C3)cc1=O` [Example 88, (S)-1-(((1-aminoisoquinolin-5-yl)amino)methyl)-4-(((1-methyl-2-oxo-1,2-dihydropyridin-4-yl)oxy)methyl)-N-(2,2,2-trifluoro-1-phenylethyl)-2-azabicyclo [2.1.1]hexane-2-carboxamide]: the pIC50 was 7.00 to 8.00. Next, `Cn1ccc(OCC23CN(C(=O)Cc4ccc5c(c4)CCO5)C(CNc4cccc5c(N)nccc45)(C2)C3)cc1=O` [Example 3, 4-((1-(((1-aminoisoquinolin-5-yl)amino)methyl)-2-(2-(2,3-dihydrobenzofuran-5-yl)acetyl)-2-azabicyclo[2.1.1]hexan-4-yl)methoxy)-1-methylpyridin-2(1H)-one]: 8.00 to 9.00.

Consider `Cc1cc(OCC23CN(c4nnc(C5CC5)o4)C(CNc4cccc5c(N)nccc45)(C2)C3)cc(=O)n1C` [Example 105, 4-((1-(((1-aminoisoquinolin-5-yl)amino)methyl)-2-(5-cyclopropyl-1,3,4-oxadiazol-2-yl)-2-azabicyclo[2.1.1]hexan-4-yl)methoxy)-1,6-dimethylpyridin-2(1H)-one], for which the pIC50 was 8.00 to 9.00. Turning to `Cc1cc(OCC23CN(C(=O)N4CCCC5(C4)CC5(F)F)C(CNc4cccc5c(N)nccc45)(C2)C3)cc(=O)n1C` (stereo not shown) [Example 87, 4-((1-(((1-aminoisoquinolin-5-yl)amino)methyl)-2-(1,1-difluoro-5-azaspiro[2.5]octane-5-carbonyl)-2-azabicyclo[2.1.1]hexan-4-yl)methoxy)-1,6-dimethylpyridin-2(1H)-one], the pIC50 was 7.00 to 8.00.

For `Cc1cc(OCC23CN(C(=O)N(C)C[C@@H]4CCOC4)C(CNc4cccc5c(N)nccc45)(C2)C3)cc(=O)n1C` [Example 47, (S)-1-(((1-aminoisoquinolin-5-yl)amino)methyl)-4-(((1,6-dimethyl-2-oxo-1,2-dihydropyridin-4-yl)oxy)methyl)-N-methyl-N-((tetrahydrofuran-3-yl)methyl)-2-azabicyclo[2.1.1]hexane-2-carboxamide], the pIC50 is 7.00 to 8.00. Regarding `Cn1ccc(OCC23CN(C(=O)N4Cc5ccccc5C4)C(CNc4cccc5c(N)nccc45)(C2)C3)cc1=O` [Example 50, 4-((1-(((1-aminoisoquinolin-5-yl)amino)methyl)-2-(isoindoline-2-carbonyl)-2-azabicyclo[2.1.1]hexan-4-yl)methoxy)-1-methylpyridin-2(1H)-one], the pIC50 is 7.00 to 8.00. Next, `Cn1ccc(OCC23CN(C(=O)Cc4ccc5c(c4)CCCO5)C(CNc4cccc5c(N)nccc45)(C2)C3)cc1=O` [Example 15, 4-((1-(((1-Aminoisoquinolin-5-yl)amino)methyl)-2-(2-(chroman-6-yl)acetyl)-2-azabicyclo[2.1.1]hexan-4-yl)methoxy)-1-methylpyridin-2(1H)-one]: 8.00 to 9.00; `Cn1ccc(OCC23CN(C(=O)C4(c5ccccc5)CC4)C(CNc4cccc5c(N)nccc45)(C2)C3)cc1=O` [Example 18, 4-((1-(((1-aminoisoquinolin-5-yl)amino)methyl)-2-(1-phenylcyclopropane-1-carbonyl)-2-azabicyclo[2.1.1]hexan-4-yl)methoxy)-1-methylpyridin-2(1H)-one]: 6.52 to 7.00.

On to `Cn1ccc(OCC23CN(C(=O)C(C)(C)Oc4ccccc4)C(CNc4cccc5c(N)nccc45)(C2)C3)cc1=O` [Example 4, 4-((1-(((1-aminoisoquinolin-5-yl)amino)methyl)-2-(2-methyl-2-phenoxypropanoyl)-2-azabicyclo[2.1.1]hexan-4-yl)methoxy)-1-methylpyridin-2(1H)-one], for which the pIC50 is 6.52 to 7.00. Take `Cn1ccc(OCC23CN(C(=O)Nc4cc(F)cc5c4OCOC5)C(CNc4cccc5c(N)nccc45)(C2)C3)cc1=O` [Example 62, 1-(((1-aminoisoquinolin-5-yl)amino)methyl)-N-(6-fluoro-4H-benzo[d][1,3]dioxin-8-yl)-4-(((1-methyl-2-oxo-1,2-dihydropyridin-4-yl)oxy)methyl)-2-azabicyclo [2.1.1]hexane-2-carboxamide]: the pIC50 is 8.00 to 9.00. Then `Cn1ccc(OCC23CN(C(=O)NCC4(C)COC4)C(CNc4cccc5c(N)nccc45)(C2)C3)cc1=O` [Example 76, 1-(((1-aminoisoquinolin-5-yl)amino)methyl)-4-(((1-methyl-2-oxo-1,2-dihydropyridin-4-yl)oxy)methyl)-N-((3-methyloxetan-3-yl)methyl)-2-azabicyclo[2.1.1]hexane-2-carboxamide], with 7.00 to 8.00; and `Cn1ccc(OCC23CN(C(=O)NCCC4CCC4)C(CNc4cccc5c(N)nccc45)(C2)C3)cc1=O` [Example 81, 1-(((1-aminoisoquinolin-5-yl)amino)methyl)-N-(2-cyclobutylethyl)-4-(((1-methyl-2-oxo-1,2-dihydropyridin-4-yl)oxy)methyl)-2-azabicyclo[2.1.1]hexane-2-carboxamide], with 7.00 to 8.00; and `Cc1cc(OCC23CN(C(=O)N4CCC(c5ccccc5)CC4)C(CNc4cccc5c(N)nccc45)(C2)C3)cc(=O)n1C` [Example 70, 4-((1-(((1-aminoisoquinolin-5-yl)amino)methyl)-2-(4-phenylpiperidine-1-carbonyl)-2-azabicyclo[2.1.1]hexan-4-yl)methoxy)-1,6-dimethylpyridin-2(1H)-one], with 7.00 to 8.00. `Cn1ccc(OCC23CN(C(=O)N4CCOc5ccccc54)C(CNc4cccc5c(N)nccc45)(C2)C3)cc1=O` [Example 35, 4-((1-(((1-aminoisoquinolin-5-yl)amino)methyl)-2-(3,4-dihydro-2H-benzo[b][1,4]oxazine-4-carbonyl)-2-azabicyclo[2.1.1]hexan-4-yl)methoxy)-1-methylpyridin-2(1H)-one]: the pIC50 was 7.00 to 8.00. Regarding `Cn1ccc(OCC23CN(C(=S)Nc4ccccc4)C(CNc4cccc5c(N)nccc45)(C2)C3)cc1=O` [Example 91, 1-(((1-Aminoisoquinolin-5-yl)amino)methyl)-4-(((1-methyl-2-oxo-1,2-dihydropyridin-4-yl)oxy)methyl)-N-phenyl-2-azabicyclo[2.1.1]hexane-2-carbothioamide], the pIC50 was 7.00 to 8.00. With `Cn1ccc(OCC23CN(C(=O)NC4CCC(S(=O)(=O)C5CCCCC5)CC4)C(CNc4cccc5c(N)nccc45)(C2)C3)cc1=O` (stereo not shown) [Example 74, 1-(((1-aminoisoquinolin-5-yl)amino)methyl)-N-(4-(cyclohexylsulfonyl)cyclohexyl)-4-(((1-methyl-2-oxo-1,2-dihydropyridin-4-yl)oxy)methyl)-2-azabicyclo[2.1.1]hexane-2-carboxamide], the pIC50 was 7.00 to 8.00. Then `CC(=O)N1CCC(CC(=O)N2CC3(COc4ccn(C)c(=O)c4)CC2(CNc2cccc4c(N)nccc24)C3)CC1` [Example 16, 4-((2-(2-(1-acetylpiperidin-4-yl)acetyl)-1-(((1-aminoisoquinolin-5-yl)amino)methyl)-2-azabicyclo[2.1.1]hexan-4-yl)methoxy)-1-methylpyridin-2(1H)-one], with 7.00 to 8.00. Then `Cn1ccc(CCC(=O)N2CC3(COc4ccn(C)c(=O)c4)CC2(CNc2cccc4c(N)nccc24)C3)cc1=O` [Example 19, 4-((1-(((1-aminoisoquinolin-5-yl)amino)methyl)-2-(3-(1-methyl-2-oxo-1,2-dihydropyridin-4-yl)propanoyl)-2-azabicyclo[2.1.1]hexan-4-yl)methoxy)-1-methylpyridin-2(1H)-one], with 7.00 to 8.00. With `Cn1ccc(OCC23CN(C(=O)NC4C(C)(C)C4(C)C)C(CNc4cccc5c(N)nccc45)(C2)C3)cc1=O` [Example 80, 1-(((1-aminoisoquinolin-5-yl)amino)methyl)-4-(((1-methyl-2-oxo-1,2-dihydropyridin-4-yl)oxy)methyl)-N-(2,2,3,3-tetramethylcyclopropyl)-2-azabicyclo [2.1.1]hexane-2-carboxamide], the pIC50 was 7.00 to 8.00.

With `Cc1cc(OCC23CN(C(=O)N4CC5(CCOCC5)C4)C(CNc4cccc5c(N)nccc45)(C2)C3)cc(=O)n1C` [Example 46, 4-((1-(((1-aminoisoquinolin-5-yl)amino)methyl)-2-(7-oxa-2-azaspiro[3.5]nonane-2-carbonyl)-2-azabicyclo[2.1.1]hexan-4-yl)methoxy)-1,6-dimethylpyridin-2(1H)-one], the pIC50 was 7.00 to 8.00. Next, `Cn1ccc(OCC23CN(C(=O)C[C@H]4CCOC4)C(CNc4cccc5c(N)nccc45)(C2)C3)cc1=O` [Example 10, (R)-4-((1-(((1-aminoisoquinolin-5-yl)amino)methyl)-2-(2-(tetrahydrofuran-3-yl)acetyl)-2-azabicyclo[2.1.1]hexan-4-yl)methoxy)-1-methylpyridin-2(1H)-one]: 7.00 to 8.00.
